In ChEMBL document CHEMBL1201862, “PubChem BioAssay data set” (2004):
Calls of active or inactive are those of the source.

Tests used:
Coagulation factor XII = molecular target: T1, Coagulation factor XII (Homo sapiens, UniProt P00748); type: functional;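 also: activated factor XIIa alpha cleaving a fluorogenic AMC peptide substrate; inhibitor potency from loss of enzyme activity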
T1 sequence (P00748 whole entry): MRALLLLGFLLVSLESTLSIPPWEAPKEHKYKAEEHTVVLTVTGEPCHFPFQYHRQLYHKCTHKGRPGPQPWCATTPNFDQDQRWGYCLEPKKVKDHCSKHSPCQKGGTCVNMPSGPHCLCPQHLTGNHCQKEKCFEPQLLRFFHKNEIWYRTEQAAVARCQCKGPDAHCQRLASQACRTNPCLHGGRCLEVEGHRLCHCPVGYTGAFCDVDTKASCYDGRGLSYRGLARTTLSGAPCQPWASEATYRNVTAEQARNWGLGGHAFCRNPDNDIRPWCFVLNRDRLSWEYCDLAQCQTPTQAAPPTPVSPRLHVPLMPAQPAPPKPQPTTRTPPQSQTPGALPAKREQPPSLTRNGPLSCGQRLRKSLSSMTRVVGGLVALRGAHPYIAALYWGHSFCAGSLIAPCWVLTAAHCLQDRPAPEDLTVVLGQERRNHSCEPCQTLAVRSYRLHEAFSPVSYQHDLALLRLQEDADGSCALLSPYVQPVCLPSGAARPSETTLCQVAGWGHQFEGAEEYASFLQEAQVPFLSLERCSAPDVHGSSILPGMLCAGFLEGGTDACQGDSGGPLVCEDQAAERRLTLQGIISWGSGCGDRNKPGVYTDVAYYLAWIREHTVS

Cytochrome P450 2C9 [1] = molecular target: T2, Cytochrome P450 2C9 (Homo sapiens, UniProt P11712)
Cytochrome P450 2C19 = Cytochrome P450 2C19 (Homo sapiens, UniProt P33261); assay: Cytochrome panel assay with activity outcomes. Panel member name: p450-cyp2c19 Compounds with AC50 equal or less than 10 uM are considered active; type: functional; settings: read-out: AC50
Genome polyprotein = Genome polyprotein (dengue virus type 2, UniProt P29990); assay: Dengue-2 NS5 methyltransferase inhibitors, primary screen, biochemical, confirmation dose response (AID 588689); type: functional
[2] = molecular target: T3, Replicative DNA helicase DnaB (Mycobacterium tuberculosis, UniProt P9WMR3); assay: DnaB intein splicing inhibitors, dose response, biochemical, cell-free fluorescence (AID 449749); type: functional
T3 sequence (P9WMR3 whole entry): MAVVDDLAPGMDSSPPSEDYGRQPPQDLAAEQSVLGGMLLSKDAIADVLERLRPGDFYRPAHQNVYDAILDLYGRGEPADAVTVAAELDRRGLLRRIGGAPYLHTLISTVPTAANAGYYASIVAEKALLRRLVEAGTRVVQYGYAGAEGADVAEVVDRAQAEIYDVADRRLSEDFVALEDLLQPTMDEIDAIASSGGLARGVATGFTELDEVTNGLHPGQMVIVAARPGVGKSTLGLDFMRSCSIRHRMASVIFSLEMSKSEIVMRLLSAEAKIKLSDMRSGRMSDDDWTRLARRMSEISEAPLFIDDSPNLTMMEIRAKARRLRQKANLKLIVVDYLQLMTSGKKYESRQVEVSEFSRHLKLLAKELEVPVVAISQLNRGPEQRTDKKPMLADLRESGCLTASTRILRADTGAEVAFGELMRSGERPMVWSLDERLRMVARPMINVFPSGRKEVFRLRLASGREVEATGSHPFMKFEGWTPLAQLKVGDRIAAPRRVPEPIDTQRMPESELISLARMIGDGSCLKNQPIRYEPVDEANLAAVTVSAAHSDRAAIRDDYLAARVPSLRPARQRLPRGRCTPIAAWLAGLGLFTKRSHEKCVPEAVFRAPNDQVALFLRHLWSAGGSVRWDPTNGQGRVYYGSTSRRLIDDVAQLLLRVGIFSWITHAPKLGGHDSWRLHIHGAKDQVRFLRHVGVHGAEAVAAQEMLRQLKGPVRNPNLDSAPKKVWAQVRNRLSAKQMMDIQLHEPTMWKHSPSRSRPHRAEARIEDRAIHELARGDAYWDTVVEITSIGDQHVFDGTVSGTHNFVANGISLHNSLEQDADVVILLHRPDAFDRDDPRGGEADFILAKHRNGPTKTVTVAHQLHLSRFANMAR

Protein RecA = molecular target: T4, Protein RecA (Mycobacterium tuberculosis, UniProt P9WHJ3); assay: Fluorescence Cell-Free Homogeneous Dose Retest to Identify Inhibitors of RecA-Intein Splicing Activity. [Related pubchem assays (depositor defined):AID2097, AID2223, AID489010, AID492950]; type: functional
T4 sequence (P9WHJ3 whole entry): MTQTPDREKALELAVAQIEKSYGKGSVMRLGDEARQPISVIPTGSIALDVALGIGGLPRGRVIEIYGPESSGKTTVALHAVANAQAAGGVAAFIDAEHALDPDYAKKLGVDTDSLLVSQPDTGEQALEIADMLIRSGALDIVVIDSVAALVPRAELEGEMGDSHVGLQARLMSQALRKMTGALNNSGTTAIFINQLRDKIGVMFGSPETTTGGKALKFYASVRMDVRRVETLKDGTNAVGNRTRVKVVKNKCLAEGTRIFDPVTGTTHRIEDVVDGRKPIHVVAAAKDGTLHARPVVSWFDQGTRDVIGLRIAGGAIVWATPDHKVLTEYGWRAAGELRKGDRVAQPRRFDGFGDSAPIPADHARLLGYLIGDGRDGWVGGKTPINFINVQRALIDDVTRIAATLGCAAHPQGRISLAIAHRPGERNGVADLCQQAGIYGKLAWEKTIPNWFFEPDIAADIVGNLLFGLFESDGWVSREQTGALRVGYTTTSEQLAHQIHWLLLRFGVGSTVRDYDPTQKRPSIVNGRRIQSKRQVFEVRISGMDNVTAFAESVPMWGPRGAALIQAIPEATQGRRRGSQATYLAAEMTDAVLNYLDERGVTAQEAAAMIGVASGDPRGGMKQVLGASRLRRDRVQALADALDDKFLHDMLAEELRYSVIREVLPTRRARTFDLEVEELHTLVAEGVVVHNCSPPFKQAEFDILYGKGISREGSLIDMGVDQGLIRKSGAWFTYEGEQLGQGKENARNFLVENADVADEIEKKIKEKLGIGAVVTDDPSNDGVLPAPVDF

[3] = inhibitors of clade B AD8 Env fusion, dose response, cell-based, cherry-pick (AID 652062); type: functional;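 also: luciferase signal from cell-cell fusion driven by HIV-1 clade B AD8 Env; potency is for inhibitors of fusion seen as a drop in luminescence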
[4] = inhibitors of HIV Env-driven cell fusion, dose response, cherry-pick (AID 652057); type: functional, cell-based
[5] = off-target signal loss in HeLa-CEM21 co-culture – HeLa F-luc CTL cells, cherry-picked, counter-screen for HIV-1 Env fusion inhibitor project, dose response (AID 652040); type: functional, cell-based;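 also: potency for signal decrease marking cytotoxic or nonspecific inhibition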
[6] = ZM109 Env clade C HIV-1 fusion inhibitors, dose response, HeLa effector, CEM target cells, luciferase, cherry-pick (AID 652058); type: functional, cell-based
Cytochrome P450 3A4 = Cytochrome P450 3A4 (Homo sapiens, UniProt P08684);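 also: CYP3A4 tested as one member of a cytochrome P450 panel screen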
Cytochrome P450 2D6 = Cytochrome P450 2D6 (Homo sapiens, UniProt P10635);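 also: CYP2D6 member of a cytochrome P450 panel assay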
Cytochrome P450 2C9 [7] = molecular target: T2, Cytochrome P450 2C9; remark: listed apart in the source
Fatty acid synthase = Fatty acid synthase (Homo sapiens, UniProt P49327); assay: FAS thioesterase domain inhibitors, dose response, biochemical, kinetic fluorescence intensity (AID 624326); type: functional;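 also: rate of fluorescence rise from hydrolysis of a fluorogenic O-methyl fluorescein ester substrate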
[8] = cytotoxicity toward NIH3T3 fibroblasts, dose response, counter-screen, cell-based, ATP luminescence, mouse fibroblasts (AID 2010); type: functional;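 also: cells exposed to compound for about 90 hours before reading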
[9] = molecular target: T5, Microphthalmia-associated transcription factor (Homo sapiens, UniProt O75030); assay: TRPM1 promoter luciferase signal decrease, dose response, MITF inhibitor project, cell-based, SK-MEL-5, cherry-picked, set 3 (AID 493073); type: functional
T5 sequence (O75030 whole entry): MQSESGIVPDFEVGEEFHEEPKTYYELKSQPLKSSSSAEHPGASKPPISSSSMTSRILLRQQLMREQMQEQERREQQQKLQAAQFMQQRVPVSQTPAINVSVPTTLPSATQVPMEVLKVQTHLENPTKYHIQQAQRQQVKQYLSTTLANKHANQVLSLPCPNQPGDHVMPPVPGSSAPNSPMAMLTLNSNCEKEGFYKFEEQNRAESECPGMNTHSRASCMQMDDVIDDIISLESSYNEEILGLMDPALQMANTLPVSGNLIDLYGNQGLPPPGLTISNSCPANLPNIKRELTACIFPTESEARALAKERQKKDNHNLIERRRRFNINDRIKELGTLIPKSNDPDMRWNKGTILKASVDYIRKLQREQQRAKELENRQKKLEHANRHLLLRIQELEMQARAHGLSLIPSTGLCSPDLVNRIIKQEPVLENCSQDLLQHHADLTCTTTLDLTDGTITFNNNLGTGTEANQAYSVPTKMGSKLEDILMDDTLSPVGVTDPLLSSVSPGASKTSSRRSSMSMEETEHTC

[10] = inhibitors of intracellular T. cruzi replication, confirmation, NIH3T3 host cells, beta-gal luminescence (AID 2044); type: functional, cell-based;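 also: intracellular parasites grown in NIH/3T3 mouse fibroblasts as host cells; luminescent beta-galactosidase reporter signal from transgenic T. cruzi replicating inside host cells; inhibitors lower the luminescence signal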
INS1 = assay: beta cell apoptosis inhibitors, cytokine rescue, dose response, luminescence, retest (AID 449756); type: functional, cell-based; settings: Rattus norvegicus;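 also: cell death triggered by IL-1 beta plus TNF-alpha plus IFN-gamma mixture; protective hits raise ATP signal compared with cytokine alone wells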
[11] = inhibitors of firefly luciferase expression or activity, dose response, H4 neuroglioma cells, luminescence (AID 1990); type: functional, cell-based
[12] = inhibitors of SNCA 5'UTR-driven reporter translation, confirmation, H4 neuroglioma cells, luminescence (AID 1988); type: functional, cell-based
[13] = Luminescence Cell-Based Dose Response HTS to Identify Inhibitors of 5'UTR Stem-Loop Driven Prion Protein mRNA Translation in H4 Neuroglioblastoma Cells. [Related pubchem assays: 1827 (Project Summary), 1813 (Primary HTS)]; type: functional
Vero = assay: cells; type: functional, cell-based; settings: Chlorocebus sabaeus
cells = type: functional

Sequence of Genome polyprotein (P29990 2492-3391 limits assumed): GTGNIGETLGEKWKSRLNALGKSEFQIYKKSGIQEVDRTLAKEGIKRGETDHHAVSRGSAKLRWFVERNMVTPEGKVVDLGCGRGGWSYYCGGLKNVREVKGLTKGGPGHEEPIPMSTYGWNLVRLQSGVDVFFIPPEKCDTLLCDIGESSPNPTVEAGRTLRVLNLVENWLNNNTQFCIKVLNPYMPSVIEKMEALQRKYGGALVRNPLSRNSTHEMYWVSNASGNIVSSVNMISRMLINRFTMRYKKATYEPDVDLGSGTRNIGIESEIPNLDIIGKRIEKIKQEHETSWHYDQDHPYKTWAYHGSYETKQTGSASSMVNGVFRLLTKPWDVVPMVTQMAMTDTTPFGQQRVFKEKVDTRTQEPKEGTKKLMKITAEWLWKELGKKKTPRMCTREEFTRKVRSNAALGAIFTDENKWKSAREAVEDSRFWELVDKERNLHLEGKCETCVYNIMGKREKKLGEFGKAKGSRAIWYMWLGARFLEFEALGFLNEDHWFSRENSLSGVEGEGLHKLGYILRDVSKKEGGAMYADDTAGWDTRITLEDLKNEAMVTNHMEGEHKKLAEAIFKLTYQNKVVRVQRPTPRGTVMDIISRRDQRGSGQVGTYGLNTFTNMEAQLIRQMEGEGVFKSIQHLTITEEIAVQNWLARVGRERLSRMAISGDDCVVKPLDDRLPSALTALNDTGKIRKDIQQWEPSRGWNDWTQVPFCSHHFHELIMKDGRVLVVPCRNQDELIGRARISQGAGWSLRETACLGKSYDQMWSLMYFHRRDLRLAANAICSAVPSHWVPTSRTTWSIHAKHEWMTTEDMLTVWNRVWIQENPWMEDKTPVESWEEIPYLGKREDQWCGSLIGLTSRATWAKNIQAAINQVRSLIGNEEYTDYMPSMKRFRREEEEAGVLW
Sequence of Cytochrome P450 2C19 (P33261 whole entry): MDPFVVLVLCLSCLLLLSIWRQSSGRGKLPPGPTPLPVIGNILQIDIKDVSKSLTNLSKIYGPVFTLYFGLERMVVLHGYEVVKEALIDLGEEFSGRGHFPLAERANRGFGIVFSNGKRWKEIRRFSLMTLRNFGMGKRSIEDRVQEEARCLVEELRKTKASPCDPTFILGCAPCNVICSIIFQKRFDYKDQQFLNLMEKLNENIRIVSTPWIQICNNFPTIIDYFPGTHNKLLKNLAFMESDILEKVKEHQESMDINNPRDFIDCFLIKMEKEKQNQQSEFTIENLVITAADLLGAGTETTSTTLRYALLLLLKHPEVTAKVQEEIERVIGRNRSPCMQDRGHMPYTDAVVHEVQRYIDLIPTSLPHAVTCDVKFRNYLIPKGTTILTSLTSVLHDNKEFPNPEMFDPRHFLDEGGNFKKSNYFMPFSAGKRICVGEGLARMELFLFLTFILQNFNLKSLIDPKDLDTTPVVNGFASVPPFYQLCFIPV
T2 sequence (P11712 whole entry): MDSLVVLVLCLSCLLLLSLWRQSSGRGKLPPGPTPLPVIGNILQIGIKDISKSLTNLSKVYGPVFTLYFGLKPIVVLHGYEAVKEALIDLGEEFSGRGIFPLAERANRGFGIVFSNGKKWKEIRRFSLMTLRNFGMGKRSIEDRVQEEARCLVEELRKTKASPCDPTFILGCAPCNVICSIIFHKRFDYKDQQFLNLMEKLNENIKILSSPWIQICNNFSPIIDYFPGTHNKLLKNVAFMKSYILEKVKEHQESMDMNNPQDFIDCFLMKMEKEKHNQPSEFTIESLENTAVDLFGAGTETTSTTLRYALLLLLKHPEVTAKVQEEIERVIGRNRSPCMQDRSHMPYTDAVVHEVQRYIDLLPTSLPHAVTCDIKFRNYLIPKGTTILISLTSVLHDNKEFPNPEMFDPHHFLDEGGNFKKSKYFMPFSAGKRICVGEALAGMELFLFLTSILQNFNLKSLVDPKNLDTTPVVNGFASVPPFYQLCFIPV
Sequence of Cytochrome P450 2D6 (P10635 whole entry): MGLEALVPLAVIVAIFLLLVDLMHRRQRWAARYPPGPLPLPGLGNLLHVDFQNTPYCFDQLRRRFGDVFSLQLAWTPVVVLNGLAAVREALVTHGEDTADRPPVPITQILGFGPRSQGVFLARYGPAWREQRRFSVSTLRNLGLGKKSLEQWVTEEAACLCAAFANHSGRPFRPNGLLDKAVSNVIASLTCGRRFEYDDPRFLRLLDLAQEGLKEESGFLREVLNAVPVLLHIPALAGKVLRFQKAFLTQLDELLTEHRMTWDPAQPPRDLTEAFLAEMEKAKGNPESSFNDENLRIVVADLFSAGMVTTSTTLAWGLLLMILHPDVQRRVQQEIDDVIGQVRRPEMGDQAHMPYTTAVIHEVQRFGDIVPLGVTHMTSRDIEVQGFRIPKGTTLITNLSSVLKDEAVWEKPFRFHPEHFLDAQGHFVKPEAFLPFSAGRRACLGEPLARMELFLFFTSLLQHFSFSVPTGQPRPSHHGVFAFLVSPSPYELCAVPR
Sequence of Cytochrome P450 3A4 (P08684 whole entry): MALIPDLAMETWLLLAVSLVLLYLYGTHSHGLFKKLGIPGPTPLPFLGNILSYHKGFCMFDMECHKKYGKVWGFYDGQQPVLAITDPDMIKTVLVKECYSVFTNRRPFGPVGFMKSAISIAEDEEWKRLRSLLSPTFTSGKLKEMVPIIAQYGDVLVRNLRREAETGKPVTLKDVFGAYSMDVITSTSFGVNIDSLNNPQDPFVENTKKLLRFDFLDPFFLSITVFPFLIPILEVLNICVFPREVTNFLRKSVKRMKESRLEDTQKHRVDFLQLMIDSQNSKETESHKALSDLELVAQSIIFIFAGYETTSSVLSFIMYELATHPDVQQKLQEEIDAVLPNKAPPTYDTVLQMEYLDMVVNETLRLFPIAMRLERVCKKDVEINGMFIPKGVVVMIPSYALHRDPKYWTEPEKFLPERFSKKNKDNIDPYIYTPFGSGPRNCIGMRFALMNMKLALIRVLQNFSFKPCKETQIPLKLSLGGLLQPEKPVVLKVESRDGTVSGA

CS(=O)(=O)N(Cc1ccccc1)c1ccc(C(=O)NC2CCCCC2O)cc1 (stereo unspecified)
IC50 (Coagulation factor XII): > 50 µM (inactive)

C=CCSC[C@@H]1Nc2cc(Cl)c(S(N)(=O)=O)cc2S(=O)(=O)N1
AC50 (Cytochrome P450 2C9 [1]): inconclusive

Cc1ccccc1-c1nc(N2CCOCC2)c2ccccc2n1
AC50 (Cytochrome P450 2C19): 39.8 µM (inconclusive) | AC50 (Cytochrome P450 2C9 [1]): inconclusive

CC(C)OC(=O)c1cccc(NC(=O)CSc2nnc(N)s2)c1
IC50 (Coagulation factor XII): > 50 µM (inactive)

COc1ccc(OC)c(N2C(=O)C(Cl)=C(N3CCOCC3)C2=O)c1
IC50 (Genome polyprotein): 18.1 µM (active) | AC50 [2]: 145 µM (active) | EC50 (Protein RecA): 26.3 µM (active)

CCC(C)[C@H](NC(=O)Nc1ccc(C(C)=O)cc1)C(=O)OC (stereo partly specified)
IC50 (Coagulation factor XII): > 50 µM (inactive)

Cc1cccc2cc(=O)[nH]c(C)c12
AC50 (Cytochrome P450 2C9 [1]): inconclusive

CCOc1cc2c(C)cc(=O)oc2cc1Cl
AC50 (Cytochrome P450 2C19): 14.1 µM (inconclusive) | AC50 (Cytochrome P450 2C9 [1]): inconclusive

CC(C)OP(=O)(Nc1cccc2ccccc12)OC(C)C
AC50 [3]: 7.86 µM (active) | AC50 [4]: 4.78 µM (active) | AC50 [5]: 5.98 µM (active) | AC50 [6]: 5.55 µM (active)

CCCC(=O)/N=C1\SC2CS(=O)(=O)CC2N1c1ccc(CC)cc1 (stereo unspecified)
IC50 (Coagulation factor XII): > 50 µM (inactive) | AC50 (Cytochrome P450 3A4): 12.6 µM (inconclusive) | AC50 (Cytochrome P450 2D6): 15.8 µM (inconclusive) | AC50 (Cytochrome P450 2C9 [7]): 10 µM (inconclusive)

NC(=NOC(=O)CCCc1ccccc1)c1cccc([N+](=O)[O-])c1
IC50 (Fatty acid synthase): 11.6 µM (active)

Cc1nn(CC(=O)N2CCc3ccccc3C2)c(C)c1[N+](=O)[O-]
IC50 (Coagulation factor XII): > 50 µM (inactive)

O=[N+]([O-])c1cccc(/C=C/c2nc(O)nc(O)c2[N+](=O)[O-])c1
IC50 (Genome polyprotein): 72.8 µM (active)

COc1cc(NC(=O)c2ccc([N+](=O)[O-])o2)ccc1NC(=O)c1cccs1
EC50 [8]: > 60 µM (not active) | AC50 [9]: 8.46 µM (active) | EC50 [10]: 0.548 µM (active) | AC50 (INS1): 11.2 µM (active)

Cc1cccc(-n2cccc2)c1C#N
AC50 (Cytochrome P450 2C9 [1]): inconclusive

O=C(CCl)N(Cc1cc(O)nc2ccccc12)c1ccccc1
AC50 [9]: 5.42 µM (active) | AC50 [2]: 5.06 µM (active) | EC50 (Protein RecA): 2.38 µM (active)

C#CCOc1ccc(/C=C2/C(=O)N(c3cccc(C(=O)O)c3)N=C2C)cc1OC
IC50 (Genome polyprotein): 8.42 µM (active) | AC50 [2]: 2.41 µM (active) | EC50 (Protein RecA): 2.01 µM (active)

CCN(CC)c1ccc(/C=N/NS(=O)(=O)c2cccc([N+](=O)[O-])c2)cc1
IC50 (Coagulation factor XII): > 50 µM (inactive)

Nc1[nH]nc2nc(NCc3ccccc3)c3c(c12)CCN(Cc1ccccc1)C3
EC50 [11]: 20.1 µM (active) | EC50 [12]: > 120 µM (not active) | EC50 [13]: 16.3 µM (active) | IC50 (Vero): > 25 µM (active)

COc1ccc(C(=O)NC2CCCc3c2cnn3-c2cccc(C)c2C)o1 (stereo unspecified)
IC50 (Vero): > 25 µM (active)

COc1ccc(CN(C)C(=S)Nc2ccc(Cl)cc2)cc1
IC50 (Coagulation factor XII): > 50 µM (inactive)

CCCn1cc(CN2CCCC(C(=O)c3cccc(OC)c3)C2)c(C)n1 (stereo unspecified)
IC50 (Coagulation factor XII): > 50 µM (inactive)

OC1(c2cccs2)C[N+](c2ccc(Br)cc2)=C2SCCCN21 (stereo unspecified)
IC50 (Vero): 14.9 µM (active)

CCC(C)n1nnc2c(=O)oc3ccccc3c21 (stereo unspecified)
AC50 (Cytochrome P450 2C19): 8.91 µM (inconclusive) | AC50 (Cytochrome P450 2C9 [1]): inconclusive | IC50 (cells): 5.77 µM (active)
